{
  "source": "patent US12290509B2",
  "about": "“Treatment of hepatitis delta virus infection” (priority 2014, dated 2025)",
  "key": {"[1]": {"system": "hepatitis delta virus (HDV)", "format": "in vivo, human"}, "[2]": {"experiment": "Serum ALT values in HDV patients", "format": "in vivo, human"}, "[3]": {"experiment": "Lonafarnib serum/plasma concentration in HDV patients (LC-MS/MS)", "format": "in vivo, human", "conditions": "N=3", "from_the_text": "As used herein, a serum lonafarnib level or concentration can be measured from a serum sample obtained from a subject periodically (such as weekly, biweekly, monthly or according to other schedules) and the levels during intervening periods can be extrapolated. […] In some embodiments the first measurement is made no earlier than one week after the initiation of oral therapy. Serum levels of lonafarnib can be measured using art-known methods, including radioimmunoassays, chromatographic assays, mass spectrometry and the like. In some embodiments of the invention, patient serum samples were extracted using a protein precipitation method (Acetonitrile)."}, "[4]": {"conditions": "cited from earlier work"}, "[5]": {"conditions": "formulated in crystalline forms; cited from earlier work"}, "[6]": {"conditions": "200 mg BID lonafarnib; Hanrahan et al. 2009, List et al. 2002; cited from earlier work"}, "[7]": {"experiment": "Adverse events / tolerability in HDV patients", "conditions": "N=3"}, "hepatitis B virus (HBV)": {"system": "hepatitis B virus (HBV)", "experiment": "HBV DNA viral load and HBsAg in patients infected with HBV and HDV", "conditions": "200 mg BID lonafarnib 12 weeks; baseline about 4 log IU/ml; below LOQ of 2 log IU/mL", "excerpt": "The term “HBV viral load” of a human serum or plasma sample refers to the number of copies of human HBV DNA in a given amount of human serum or plasma sample. HBV DNA may be detected and quantitated using real-time PCR. Commercial assays for quantitating HBV DNA are available. In the United States, Abbott offers the RealTime HBV assay, which is an in vitro PCR assay for the quantitation of HBV DNA in human serum or plasma. A CE certified kit for real-time PCR-based detection of HBV is commercially available from Analytik Jena, Germany (RoboGene® HBV DNA Quantification Kit 2.0)."}, "[8]": {"conditions": "Norvir package insert, cited from earlier work"}},
  "note": "Values joined by “and” are separate entries in the source; they are usually repeats but may differ in a detail not shown here. Identical values can stand only once. Like-named read-outs stand apart in the source and are kept apart here.",
  "data": [
    {"smiles": "NC(=O)N1CCC(CC(=O)N2CCC([C@H]3c4ncc(Br)cc4CCc4cc(Cl)cc(Br)c43)CC2)CC1", "note": "[lonafarnib]", "values": [
      {"measurement": "Δ log Baseline to Day 28", "setting": "[1]; 200 mg BID lonafarnib, individual patients 4-6", "value": "−1.85 log and −1.06 log and −1.98 log"},
      {"measurement": "Δ log Baseline to Day 28", "setting": "[1]; 300 mg BID lonafarnib, individual patients 1-3", "value": "−1.95 log and −1.97 log and −2.07 log"},
      {"measurement": "ALT following ALT flare, patient A-001-5", "setting": "[2]; 200 mg BID lonafarnib", "value": "ALT normalization"},
      {"measurement": "ALT following ALT flare, patient A-001-1", "setting": "[2]; 300 mg BID lonafarnib", "value": "ALT normalization"},
      {"measurement": "Mean Serum Concentrations (lonafarnib)", "setting": "[3]; Day 7, LNF 200 mg BID", "value": 2555, "unit": "ng/mL"},
      {"measurement": "Mean Serum Concentrations (lonafarnib)", "setting": "[3]; Day 7, LNF 300 mg BID", "value": 2994, "unit": "ng/mL"},
      {"measurement": "Mean Serum Concentrations (lonafarnib)", "setting": "[3]; Day 14, LNF 200 mg BID", "value": 2959, "unit": "ng/mL"},
      {"measurement": "Mean Serum Concentrations (lonafarnib)", "setting": "[3]; Day 14, LNF 300 mg BID", "value": 1548, "unit": "ng/mL"},
      {"measurement": "Mean Serum Concentrations (lonafarnib)", "setting": "[3]; Day 28, LNF 200 mg BID", "value": 2771, "unit": "ng/mL"},
      {"measurement": "Mean Serum Concentrations (lonafarnib)", "setting": "[3]; Day 28, LNF 300 mg BID", "value": 1984, "unit": "ng/mL"},
      {"measurement": "Mean Serum Concentrations (lonafarnib)", "setting": "[3]; Day 56, LNF 200 mg BID", "value": 1656, "unit": "ng/mL"},
      {"measurement": "Mean Serum Concentrations (lonafarnib)", "setting": "[3]; Day 56, LNF 300 mg BID", "value": 2032, "unit": "ng/mL"},
      {"measurement": "Mean Serum Concentrations (lonafarnib)", "setting": "[3]; Day 84, LNF 200 mg BID", "value": 443, "unit": "ng/mL"},
      {"measurement": "Mean Serum Concentrations (lonafarnib)", "setting": "[3]; Day 84, LNF 300 mg BID", "value": 977, "unit": "ng/mL"},
      {"measurement": "stability in solution", "setting": "[4]; by pH", "value": "stable at neutral pH but will hydrolyze in acidic or basic conditions"},
      {"measurement": "water solubility", "setting": "[4]", "value": "poorly water soluble"},
      {"measurement": "hygroscopicity", "setting": "[4]; crystalline solid", "value": "non-hygroscopic"},
      {"measurement": "thermal stability", "setting": "[4]; solid state", "value": "thermally stable"},
      {"measurement": "bioavailability in animals", "setting": "[5]", "value": "low and variable bioavailability"},
      {"measurement": "tolerability in cancer patients", "setting": "[6]", "value": "well tolerated"},
      {"measurement": "Anorexia, Grade 2", "setting": "[7]; LNF 200 mg BID", "value": "✓"},
      {"measurement": "Diarrhea, Grade 2", "setting": "[7]; LNF 200 mg BID", "value": "✓"},
      {"measurement": "Fatique, Grade 2", "setting": "[7]; LNF 200 mg BID", "value": "✓"},
      {"measurement": "Nausea, Grade 2", "setting": "[7]; LNF 200 mg BID", "value": "✓"},
      {"measurement": "Wt Loss, Grade 2", "setting": "[7]; LNF 200 mg BID", "value": "✓"},
      {"measurement": "Anorexia, Grade 2", "setting": "[7]; LNF 300 mg BID", "value": "✓"},
      {"measurement": "Diarrhea, Grade 2", "setting": "[7]; LNF 300 mg BID", "value": "✓"},
      {"measurement": "Fatique, Grade 2", "setting": "[7]; LNF 300 mg BID", "value": "✓"},
      {"measurement": "Nausea, Grade 2", "setting": "[7]; LNF 300 mg BID", "value": "✓"},
      {"measurement": "Wt Loss, Grade 2", "setting": "[7]; LNF 300 mg BID", "value": "✓"},
      {"measurement": "HBV VL (HBV DNA level) after suppression, patient A-001-5", "setting": "hepatitis B virus (HBV)", "value": "approximately 1.5 log IU/ml"}
    ]},
    {"smiles": "CC(C)c1nc(CN(C)C(=O)N[C@H](C(=O)N[C@@H](Cc2ccccc2)C[C@H](O)[C@H](Cc2ccccc2)NC(=O)OCc2cncs2)C(C)C)cs1", "note": "[ritonavir]", "values": [
      {"measurement": "increase in AUC of the co-administered primary drug", "setting": "[8]; Fluticasone propionate, aqueous nasal spray", "value": 350, "unit": "fold"},
      {"measurement": "increase in AUC of the co-administered primary drug", "setting": "[8]; sidenafil", "value": 11, "unit": "fold"},
      {"measurement": "increase in AUC of the co-administered primary drug", "setting": "[8]; trimethoprim", "value": 1.2, "unit": "fold"}
    ]}
  ]
}
